Experimental data taken from ChEMBL document CHEMBL4680354, “Design, synthesis and biological evaluation of novel indanone containing spiroisoxazoline derivatives with selective COX-2 inhibition as anticancer agents” (Bioorg Med Chem, 2021).

How the values were obtained:
[1] = target: T1, Prostaglandin G/H synthase 1 (Ovis aries, UniProt P05979); assay: Inhibition of Ovine COX-1 by chemiluminescent enzyme method
T1 sequence (P05979 whole entry): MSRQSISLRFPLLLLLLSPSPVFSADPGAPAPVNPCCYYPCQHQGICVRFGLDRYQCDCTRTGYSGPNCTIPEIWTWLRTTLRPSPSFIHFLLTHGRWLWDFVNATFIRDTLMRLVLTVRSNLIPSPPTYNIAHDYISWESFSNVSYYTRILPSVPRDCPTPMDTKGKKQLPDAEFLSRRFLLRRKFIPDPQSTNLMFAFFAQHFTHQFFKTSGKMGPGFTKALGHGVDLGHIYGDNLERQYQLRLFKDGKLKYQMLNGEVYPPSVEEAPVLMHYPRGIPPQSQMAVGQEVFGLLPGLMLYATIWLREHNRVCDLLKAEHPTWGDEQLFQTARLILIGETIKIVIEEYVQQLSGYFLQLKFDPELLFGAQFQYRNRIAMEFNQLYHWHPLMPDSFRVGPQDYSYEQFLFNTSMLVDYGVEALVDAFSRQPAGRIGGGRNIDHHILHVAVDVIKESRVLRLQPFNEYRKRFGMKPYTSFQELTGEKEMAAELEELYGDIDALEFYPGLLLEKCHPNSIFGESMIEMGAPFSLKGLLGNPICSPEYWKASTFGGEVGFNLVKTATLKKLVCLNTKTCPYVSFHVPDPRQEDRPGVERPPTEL

[2] = test system: MCF7; assay: Antiproliferative activity against human MCF-7 cells assessed as reduction in cell viability incubated for 72 hrs by MTT assay; type: functional, cell-based; conditions: MCF7, 72 h
[3] = test system: HT-29; assay: Antiproliferative activity against human HT-29 cells assessed as reduction in cell viability incubated for 72 hrs by MTT assay; type: functional, cell-based; conditions: HT-29, 72 h
[4] = test system: MCF-10A; assay: Antiproliferative activity against human MCF10A cells assessed as reduction in cell viability incubated for 72 hrs by MTT assay; type: functional, cell-based
[5] = test system: HEK293; assay: Cytotoxicity against human HEK293 cells assessed as reduction in cell viability incubated for 72 hrs by MTT assay; type: cell-based; conditions: HEK293, 72 h
[6] = test system: MCF7; assay: Antiproliferative activity against human cells MCF-7 assessed as reduction in cell viability incubated for 24 hrs by MTT assay; type: functional, cell-based; conditions: MCF7, 24 h
[7] = test system: MCF7; assay: Antiproliferative activity against human cells MCF-7 assessed as reduction in cell viability incubated for 48 hrs by MTT assay; type: functional, cell-based; conditions: MCF7, 48 h
[8] = test system: MCF7; assay: Induction of apoptosis in human MCF7 cells assessed as viable cells at IC50 measured after 72 hrs by Annexin-V/propidium iodide staining-based flow cytometric analysis (reference value: […]); type: functional
[9] = test system: MCF7; assay: Induction of apoptosis in human MCF7 cells assessed as early apoptotic cells at IC50 measured after 72 hrs by Annexin-V/propidium iodide staining-based flow cytometric analysis (reference value: 1.1%); type: functional
[10] = test system: MCF7; assay: Induction of apoptosis in human MCF7 cells assessed as late apoptotic cells at IC50 measured after 72 hrs by Annexin-V/propidium iodide staining-based flow cytometric analysis (reference value: 92.7%); type: functional
[11] = test system: MCF7; assay: Induction of apoptosis in human MCF7 cells assessed as necrotic cells at IC50 measured after 72 hrs by Annexin-V/propidium iodide staining-based flow cytometric analysis (reference value: 4.7%); type: functional

Row | Compound | IC50 [1] [µM] | IC50 [2] [µM] | IC50 [3] [µM] | IC50 [4] [µM] | IC50 [5] [µM] | IC50 [6] [µM] | IC50 [7] [µM] | Activity [8] [%] | Activity [9] [%] | Activity [10] [%] | Activity [11] [%]
1 | COc1ccc(C2=NOC3(Cc4ccccc4C3=O)C2c2ccc(S(C)(=O)=O)cc2)cc1OC (configuration not stated) | 12.1 | 0.03 | 43.7 | > 100 | > 100 | 10.5 | 1.03 | 2.5 | 37.2 | 44.7 | 15.6
2 | COc1ccc(C2=NOC3(Cc4ccccc4C3=O)C2c2ccc(S(C)(=O)=O)cc2)cc1 (configuration not stated) | 9.89 | 0.65 | 68.5 | > 100 | > 100 | – | > 100 | – | – | – | –
3 | Cc1ccc(C2=NOC3(Cc4ccccc4C3=O)C2c2ccc(S(C)(=O)=O)cc2)cc1 (configuration not stated) | 10.1 | 0.17 | 73 | > 100 | 82.4 | – | 25.7 | – | – | – | –
4 | CS(=O)(=O)c1ccc(C2C(c3ccccc3)=NOC23Cc2ccccc2C3=O)cc1 (configuration not stated) | 11.4 | 8.53 | 239 | > 100 | > 100 | – | 17.1 | – | – | – | –
5 | COc1cc(C2=NOC3(Cc4ccccc4C3=O)C2c2ccc(S(C)(=O)=O)cc2)cc(OC)c1OC (configuration not stated) | 12.8 | 0.87 | 112 | > 100 | 70.8 | 17.6 | 3.96 | – | – | – | –
6 | CS(=O)(=O)c1ccc(C2C(c3ccc(Cl)cc3)=NOC23Cc2ccccc2C3=O)cc1 (configuration not stated) | 9.43 | 1.2 | 99.3 | 22.5 | 37.7 | – | 64.8 | – | – | – | –
7 | CS(=O)(=O)c1ccc(C2C(c3ccc(F)cc3)=NOC23Cc2ccccc2C3=O)cc1 (configuration not stated) | 10.8 | 0.14 | 55.4 | 3.21 | 0.64 | – | 16.5 | – | – | – | –
8 | Cc1ccc(-c2cc(C(F)(F)F)nn2-c2ccc(S(N)(=O)=O)cc2)cc1 [CELECOXIB] | – | – | 18 | – | – | 19.8 | 16 | – | – | – | –
9 | COc1cccc2c1C(=O)c1c(O)c3c(c(O)c1C2=O)C[C@@](O)(C(=O)CO)C[C@@H]3O[C@H]1C[C@H](N)[C@H](O)[C@H](C)O1 [DOXORUBICIN] | – | – | 1.57 | – | – | – | – | – | – | – | –
10 | CC[C@]1(O)C[C@@H]2CN(CCc3c([nH]c4ccccc34)[C@@](C(=O)OC)(c3cc4c(cc3OC)N(C)[C@H]3[C@@](O)(C(=O)OC)[C@H](OC(C)=O)[C@]5(CC)C=CCN6CC[C@]43[C@@H]65)C2)C1 [VINBLASTINE] | – | – | 3.18 | – | – | 0.23 | – | – | – | – | –
11 | CC[C@]1(O)C[C@H]2CN(CCc3c([nH]c4ccccc34)[C@@](C(=O)OC)(c3cc4c(cc3OC)N(C=O)[C@H]3[C@@](O)(C(=O)OC)[C@H](OC(C)=O)[C@]5(CC)C=CCN6CC[C@]43[C@@H]65)C2)C1 [VINCRISTINE] | – | 0.89 | 1.74 | – | – | 0.92 | – | – | – | – | –
